Here are results for 33 compounds from patent publication US20240025906A1 (NEURON23, INC., priority 2022, published 2024).

The target of one test is T1, TYK2 JH2 (Homo sapiens, UniProt P29597).
T1 construct: purchased DiscoverX (KINOMEscan KdELECT service); host or cells: E. coli BL21-derived (T7 phage display) or HEK-293
The test can be described thus: TYK2 JH2 binding assay (KINOMEscan KdELECT competitive binding). To be noted: TYK2 JH2 domain, KINOMEscan KdELECT (Assay A); read-out: Biochemical TYK2_JH2_Kd. Put shortly:
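Kd values come from qPCR measurement of kinase retained on an immobilized-ligand resin after 1 h room-temperature competition with compound in an 11-point, 3-fold series.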

Test [1] concerns JAK1/TYK2 pSTAT5 (Tyr694/699) in THP-1 cell line. The test can be described thus: IFNa-stimulated JAK1/TYK2 pSTAT5 (Tyr694/699) inhibition cellular assay, AlphaLISA. The test is classed as cell-based. As to conditions: Homo sapiens; THP-1 cells, IFNa-stimulated, AlphaLISA (Assay B); read-out: Cellular THP1_IFNa-pSTATS_IC50. The method in brief:
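The readout is AlphaLISA signal at 615 nm for phospho-STAT5 in THP-1 lysates after IFNa stimulation (added at 100 ng/mL, 30 min, 37 °C). Cells had compound for 1 h beforehand across eight 6-fold concentrations up to 10000 nM final. IC50s are 4PL fits with bottom and Hill slope constrained.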
For orientation: Bead proximity is the source of the signal in Alpha formats.

T1 sequence (P29597 589-875 limits assumed): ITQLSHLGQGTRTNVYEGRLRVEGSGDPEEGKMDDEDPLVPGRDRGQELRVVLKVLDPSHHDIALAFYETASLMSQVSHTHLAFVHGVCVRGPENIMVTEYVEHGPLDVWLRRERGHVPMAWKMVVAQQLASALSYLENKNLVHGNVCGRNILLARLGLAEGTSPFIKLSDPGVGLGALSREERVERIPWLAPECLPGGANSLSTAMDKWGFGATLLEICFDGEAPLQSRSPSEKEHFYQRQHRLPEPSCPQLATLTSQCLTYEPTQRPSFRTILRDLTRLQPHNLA

With `CNc1ncc(-c2cscn2)c2cc(NC(=O)C3CC3)ncc12` [Example 65, N-(8-(methylamino)-5-(thiazol-4-yl)-2,7-naphthyridin-3-yl)cyclopropanecarboxamide], the Kd at TYK2 JH2 was at most 100 nM. Besides, the IC50 in test [1] was over 500 nM.
Take `CNc1ncc(-c2ncc(C)s2)c2cc(NC(=O)C3CC3)ncc12` [Example 66, N-(8-(methylamino)-5-(5-methylthiazol-2-yl)-2,7-naphthyridin-3-yl)cyclopropanecarboxamide]: on TYK2 JH2, the Kd was at most 100 nM. In addition, the IC50 in test [1] is over 500 nM.
Taken in the same sequence, the figures for `CNc1ncc(C2=CCOCC2)c2cc(NC(=O)C3CC3)ncc12` [Example 67, N-(5-(3,6-dihydro-2H-pyran-4-yl)-8-(methylamino)-2,7-naphthyridin-3-yl)cyclopropanecarboxamide] were at most 100 nM and over 500 nM.
In the case of `CNc1ncc(C2CCOCC2)c2cc(NC(=O)C3CC3)ncc12` [Example 68, N-(8-(methylamino)-5-(tetrahydro-2H-pyran-4-yl)-2,7-naphthyridin-3-yl)cyclopropanecarboxamide], on TYK2 JH2, the Kd is at most 100 nM. Besides, the IC50 in test [1] was over 500 nM.
With `CNc1ncc(C2=CCCCC2)c2cc(NC(=O)C3CC3)ncc12` [Example 69, N-(5-(cyclohex-1-en-1-yl)-8-(methylamino)-2,7-naphthyridin-3-yl)cyclopropanecarboxamide], the Kd at TYK2 JH2 was at most 100 nM. The IC50 in test [1] is over 500 nM.
Taken in the same sequence, the figures for `CNc1ncc(C2CCCCC2)c2cc(NC(=O)C3CC3)ncc12` [Example 70, N-(5-cyclohexyl-8-(methylamino)-2,7-naphthyridin-3-yl)cyclopropanecarboxamide] were at most 100 nM and over 500 nM.
Turning to `C=Cc1cnc(NC)c2cnc(NC(=O)C3CC3)cc12` [Example 71, N-(8-(methylamino)-5-vinyl-2,7-naphthyridin-3-yl)cyclopropanecarboxamide], the Kd on TYK2 JH2 was at most 100 nM. For the same compound, the IC50 in test [1] is over 500 nM.
Taken in the same sequence, the figures for `CCc1cnc(NC)c2cnc(NC(=O)C3CC3)cc12` [Example 72, N-(5-ethyl-8-(methylamino)-2,7-naphthyridin-3-yl)cyclopropanecarboxamide] were at most 100 nM and over 500 nM.
Regarding `C=C(C)c1cnc(NC)c2cnc(NC(=O)C3CC3)cc12` [Example 73, N-(8-(methylamino)-5-(prop-1-en-2-yl)-2,7-naphthyridin-3-yl)cyclopropanecarboxamide], the Kd on TYK2 JH2 was at most 100 nM. Also, in test [1], the IC50 was over 500 nM.
Take `CNc1ncc(C(C)C)c2cc(NC(=O)C3CC3)ncc12` [Example 74, N-(5-isopropyl-8-(methylamino)-2,7-naphthyridin-3-yl)cyclopropanecarboxamide]: the Kd on TYK2 JH2 was at most 100 nM. Moreover, the IC50 in test [1] was over 500 nM.
As to `CNc1ncc(C2=CCOC2)c2cc(NC(=O)C3CC3)ncc12` [Example 75, N-(5-(2,5-dihydrofuran-3-yl)-8-(methylamino)-2,7-naphthyridin-3-yl)cyclopropanecarboxamide], at TYK2 JH2, the Kd was at most 100 nM. Further, the IC50 in test [1] is over 500 nM.
Consider `CNc1ncc(C2CCOC2)c2cc(NC(=O)C3CC3)ncc12` (stereo not drawn) [Example 76, N-(8-(methylamino)-5-(tetrahydrofuran-3-yl)-2,7-naphthyridin-3-yl)cyclopropanecarboxamide], for which the Kd at TYK2 JH2 is at most 100 nM. For the same compound, the IC50 in test [1] was over 500 nM.
The like results for `CNc1ncc(C2=CCCOC2)c2cc(NC(=O)C3CC3)ncc12` [Example 77, N-(5-(5,6-dihydro-2H-pyran-3-yl)-8-(methylamino)-2,7-naphthyridin-3-yl)cyclopropanecarboxamide] were, in that order, at most 100 nM and over 500 nM.
As to `CNc1ncc(C2CCCOC2)c2cc(NC(=O)C3CC3)ncc12` (stereo not drawn) [Example 78, N-(8-(methylamino)-5-(tetrahydro-2H-pyran-3-yl)-2,7-naphthyridin-3-yl)cyclopropanecarboxamide], the Kd on TYK2 JH2 was at most 100 nM. Besides, in test [1], the IC50 is over 500 nM.
Taken in the same sequence, the figures for `CNc1ncc(/C=C2\CCOC2)c2cc(NC(=O)C3CC3)ncc12` [Example 79, (E)-N-(5-((dihydrofuran-3(2H)-ylidene)methyl)-8-(methylamino)-2,7-naphthyridin-3-yl)cyclopropanecarboxamide] were at most 100 nM and over 500 nM.
With `CNc1ncc(CC2CCOC2)c2cc(NC(=O)C3CC3)ncc12` (stereo not drawn) [Example 80, N-(8-(methylamino)-5-((tetrahydrofuran-3-yl)methyl)-2,7-naphthyridin-3-yl)cyclopropanecarboxamide], on TYK2 JH2, the Kd is at most 100 nM. In addition, in test [1], the IC50 is over 500 nM.
For the compound `CNc1ncc(-c2csc(C)n2)c2cc(NC(=O)C3CC3)ncc12` [Example 81, N-(8-(methylamino)-5-(2-methylthiazol-4-yl)-2,7-naphthyridin-3-yl)cyclopropanecarboxamide], the Kd on TYK2 JH2 is at most 100 nM. The IC50 in test [1] was over 500 nM.
The like results for `CNc1ncc(-c2ccsn2)c2cc(NC(=O)C3CC3)ncc12` [Example 82, N-(5-(isothiazol-3-yl)-8-(methylamino)-2,7-naphthyridin-3-yl)cyclopropanecarboxamide] were, in that order, at most 100 nM and over 500 nM.
The like results for `CNc1ncc(-c2cnsc2)c2cc(NC(=O)C3CC3)ncc12` [Example 83, N-(5-(isothiazol-4-yl)-8-(methylamino)-2,7-naphthyridin-3-yl)cyclopropanecarboxamide] were, in that order, at most 100 nM and over 500 nM.
Taken in the same sequence, the figures for `CNc1ncc(-c2ccns2)c2cc(NC(=O)C3CC3)ncc12` [Example 84, N-(5-(isothiazol-5-yl)-8-(methylamino)-2,7-naphthyridin-3-yl)cyclopropanecarboxamide] were at most 100 nM and over 500 nM.
As to `CNc1ncc(C2=CCOC2=O)c2cc(NC(=O)C3CC3)ncc12` [Example 85, N-(8-(methylamino)-5-(2-oxo-2,5-dihydrofuran-3-yl)-2,7-naphthyridin-3-yl)cyclopropanecarboxamide], the Kd at TYK2 JH2 lay within 100 to 1000 nM. Also, the IC50 in test [1] is over 500 nM.
The like results for `CNc1ncc(C2CCOC2=O)c2cc(NC(=O)C3CC3)ncc12` (stereo not drawn) [Example 86, N-(8-(methylamino)-5-(2-oxotetrahydrofuran-3-yl)-2,7-naphthyridin-3-yl)cyclopropanecarboxamide] were, in that order, at most 100 nM and over 500 nM.
Take `CNc1ncc(-c2ccn(CC#N)n2)c2cc(NC(=O)C3CC3)ncc12` [Example 87, N-(5-(1-(cyanomethyl)-1H-pyrazol-3-yl)-8-(methylamino)-2,7-naphthyridin-3-yl)cyclopropanecarboxamide]: at TYK2 JH2, the Kd is at most 100 nM. In test [1], the IC50 was over 500 nM.
The like results for `CNc1ncc(CC(F)(F)F)c2cc(NC(=O)C3CC3)ncc12` [Example 88, N-(8-(methylamino)-5-(2,2,2-trifluoroethyl)-2,7-naphthyridin-3-yl)cyclopropanecarboxamide] were, in that order, at most 100 nM and over 500 nM.
In the case of `CNc1ncc(-c2ncccc2OC)c2cc(NC(C)=O)ncc12` [Example 89, N-(5-(3-methoxypyridin-2-yl)-8-(methylamino)-2,7-naphthyridin-3-yl)acetamide], the Kd at TYK2 JH2 fell in the range of 100 to 1000 nM. In addition, in test [1], the IC50 was over 500 nM.
Turning to `CNc1ncc(-c2ccccc2)c2cc(NC(C)=O)ncc12` [Example 90, N-(8-(methylamino)-5-phenyl-2,7-naphthyridin-3-yl)acetamide], the Kd on TYK2 JH2 is at most 100 nM. The IC50 in test [1] was over 500 nM.
Taken in the same sequence, the figures for `CNc1ncc(-c2ncccc2OC)c2cc(Nc3ccccn3)ncc12` [Example 91, 4-(3-methoxypyridin-2-yl)-N^1-methyl-N^6-(pyridin-2-yl)-2,7-naphthyridine-1,6-diamine] were 100 to 1000 nM and over 500 nM.
On to `CNc1ncc(-c2ccccc2)c2cc(Nc3ccccn3)ncc12` [Example 92, N^1-methyl-4-phenyl-N^6-(pyridin-2-yl)-2,7-naphthyridine-1,6-diamine], for which the Kd at TYK2 JH2 was at most 100 nM. In addition, in test [1], the IC50 was over 500 nM.
The like results for `CNc1ncc(-c2ccccc2)c2cc(NCC3CC3)ncc12` [Example 93, N^6-(cyclopropylmethyl)-N^1-methyl-4-phenyl-2,7-naphthyridine-1,6-diamine] were, in that order, 1000 to 10000 nM and over 500 nM.
Taken in the same sequence, the figures for `CNc1ncc(-c2ccccc2)c2cc(NCC(F)(F)F)ncc12` [Example 94, N^1-methyl-4-phenyl-N^6-(2,2,2-trifluoroethyl)-2,7-naphthyridine-1,6-diamine] were 100 to 1000 nM and over 500 nM.
For `O=C(Nc1cc2c(-c3ccccc3)cnc(Cl)c2cn1)C1CC1` [Example 95, N-(8-chloro-5-phenyl-2,7-naphthyridin-3-yl)cyclopropanecarboxamide], at TYK2 JH2, the Kd was 100 to 1000 nM. In addition, in test [1], the IC50 is over 500 nM.
As to `CCc1ncc(-c2ccccc2)c2cc(NC(=O)C3CC3)ncc12` [Example 96, N-(8-ethyl-5-phenyl-2,7-naphthyridin-3-yl)cyclopropanecarboxamide], the Kd at TYK2 JH2 is at most 100 nM. In addition, the IC50 in test [1] is over 500 nM.
The like results for `CNc1ncc(-c2ccccc2)c2cc(NCc3ccc(OC)cc3)ncc12` [Example 98, N^6-(4-methoxybenzyl)-N^1-methyl-4-phenyl-2,7-naphthyridine-1,6-diamine] were, in that order, 1000 to 10000 nM and over 500 nM.
